Measurements: patent publication US12281225B2, “Process for preparing stable polymers containing vinylimidazole” (BASF SE, priority 2018, dated 2025)

Assays:
[1] = tested on: Bacteria: Escherichia coli, Staphylococcus aureus, Pseudomonas aeruginosa, Pseudomonas putida, Burkholderia cepacia, Alcaligenes faecalis; assay: Preservation test with periodic inoculation, bacteria assessment; type: cell-based; conditions: for 60 d 40° C., bact. assess., 4th inoculation: sample stored 60 d at 40° C.; for Start sample measurement, bact. assess., 4th inoculation: freshly formulated
Method in brief: (§1)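 Polymer samples (25 g) containing preservative were inoculated weekly, four times, with 10^9/ml bacterial or yeast mixtures (0.5 ml). Weekly streaks on agar were scored semiquantitatively (−− to ++) after 3 days at 25 °C, on fresh samples and on samples stored 60 days at 40 °C.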

[2] = Iodine color number according to DIN 6162:2014-09; type: physicochemical
[3] = Analysis of active substance: preservative concentration before and after storage in VI-containing polymer solution; type: physicochemical; conditions: for active-substance concentration, 0 d, RT: before storage; for active-substance concentration, 14 d, 40° C.: storage 14 d at 40° C.; for active-substance concentration, 28 d, 40° C.: storage 28 d at 40° C.; for active-substance concentration, 60 d 40° C.: storage 60 d at 40° C.
Method in brief: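 Preservatives (MIT, BIT, CMIT, OIT, DCOIT, iodopropynyl butyl carbamate) in aqueous vinylpyrrolidone–vinylimidazole copolymer solution quantified after dilution by isocratic RP18 chromatography with UV detection, using an acid-methanol eluent.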

[4] = tested on: Yeast: Candida albicans, Candida valida, Rhodotorula rura, Saccharomyces cerevisiae; assay: Preservation test with periodic inoculation, yeast assessment; type: cell-based; conditions: for Start sample measurement, yeast assess., 4th inoculation: freshly formulated; for 60 d 40° C., yeast assess., 4th inoculation: sample stored 60 d at 40° C.
Method in brief: as §1

[5] = Polymer P5 (HP56) with stabilizer

In the case of `CCCCCCCCn1sccc1=O` [OIT, octylisothiazolinone], the “60 d 40° C., bact. assess., 4th inoculation” value ([1]; Polymer P1) is reported as “+”, the “60 d 40° C., bact. assess., 4th inoculation” value ([1]; Polymer P2) is reported as “+” and the “60 d 40° C., bact. assess., 4th inoculation” value ([1]; Polymer P3) is reported as “++”. The “Start sample measurement, bact. assess., 4th inoculation” value ([1]; Polymer P4) was “− (slight growth, max. 100 colonies)”, the “60 d 40° C., bact. assess., 4th inoculation” value ([1]; Polymer P4) was “++” and the “Start sample measurement, bact. assess., 4th inoculation” value ([1]; Polymer P5 (HP56)) was “− (slight growth, max. 100 colonies)”. The “60 d 40° C., bact. assess., 4th inoculation” value ([1]; Polymer P5 (HP56)) was “++”, the “Start sample measurement, bact. assess., 4th inoculation” value ([1]; Polymer P6) was “− (slight growth, max. 100 colonies)” and the “60 d 40° C., bact. assess., 4th inoculation” value ([1]; Polymer P6) was “++”. The “Start sample measurement, bact. assess., 4th inoculation” value ([1]; Polymer P7) was “− (slight growth, max. 100 colonies)”, the “60 d 40° C., bact. assess., 4th inoculation” value ([1]; Polymer P7) was “++” and the “60 d 40° C., bact. assess., 4th inoculation” value ([1]; Polymer P8) was “+”. For the same compound, the “60 d 40° C., bact. assess., 4th inoculation” value ([1]; Polymer P9) was “++”, the “Iodine color number, 60 d 40° C.” value ([2]; Polymer P1 with stabilizer) was 5.9 and the “Iodine color number, start” value ([2]; Polymer P1 with stabilizer) was 2.8. For the same compound, the “Iodine color number, 60 d 40° C.” value ([2]; Polymer P2 with stabilizer) was 8.0, the “Iodine color number, start” value ([2]; Polymer P2 with stabilizer) was 3.0 and the “Iodine color number, 60 d 40° C.” value ([2]; Polymer P3 with stabilizer) was 9.2. For the same compound, the “Iodine color number, start” value ([2]; Polymer P3 with stabilizer) was 3.3, the “Iodine color number, 60 d 40° C.” value ([2]; Polymer P4 with stabilizer) was 9.7 and the “Iodine color number, start” value ([2]; Polymer P4 with stabilizer) was 3.3. The “Iodine color number, 60 d 40° C.” value [2, 5] was 9.7, the “Iodine color number, start” value [2, 5] was 3.4 and the “Iodine color number, 60 d 40° C.” value ([2]; Polymer P6 with stabilizer) was 9.7. For the same compound, the “Iodine color number, start” value ([2]; Polymer P6 with stabilizer) was 3.4, the “Iodine color number, 60 d 40° C.” value ([2]; Polymer P7 with stabilizer) was 9.7 and the “Iodine color number, start” value ([2]; Polymer P7 with stabilizer) was 3.4. The “Iodine color number, 60 d 40° C.” value ([2]; Polymer P8 with stabilizer) was 10.0, the “Iodine color number, start” value ([2]; Polymer P8 with stabilizer) was 3.3 and the “Iodine color number, 60 d 40° C.” value ([2]; Polymer P9 with stabilizer) was 15.5. The “Iodine color number, start” value ([2]; Polymer P9 with stabilizer) was 4.0, the “active-substance concentration, 0 d, RT” value ([3]; in Polymer P1) was 250 ppm and the “active-substance concentration, 14 d, 40° C.” value ([3]; in Polymer P1) was 142 ppm. For the same compound, the “active-substance concentration, 28 d, 40° C.” value ([3]; in Polymer P1) was 89 ppm, the “active-substance concentration, 60 d 40° C.” value ([3]; in Polymer P1) was 72 ppm and the “active-substance concentration, 0 d, RT” value ([3]; in Polymer P2) was 250 ppm. The “active-substance concentration, 14 d, 40° C.” value ([3]; in Polymer P2) was 170 ppm, the “active-substance concentration, 28 d, 40° C.” value ([3]; in Polymer P2) was 101 ppm and the “active-substance concentration, 60 d 40° C.” value ([3]; in Polymer P2) was 84 ppm. The “active-substance concentration, 0 d, RT” value ([3]; in Polymer P3) was 250 ppm, the “active-substance concentration, 14 d, 40° C.” value ([3]; in Polymer P3) was 163 ppm and the “active-substance concentration, 28 d, 40° C.” value ([3]; in Polymer P3) was 121 ppm. For the same compound, the “active-substance concentration, 60 d 40° C.” value ([3]; in Polymer P3) was 96 ppm, the “active-substance concentration, 0 d, RT” value ([3]; in Polymer P4) was 250 ppm and the “active-substance concentration, 14 d, 40° C.” value ([3]; in Polymer P4) was 165 ppm. The “active-substance concentration, 28 d, 40° C.” value ([3]; in Polymer P4) was 114 ppm, the “active-substance concentration, 60 d 40° C.” value ([3]; in Polymer P4) was 90 ppm and the “active-substance concentration, 0 d, RT” value ([3]; in Polymer P5 (HP56)) was 250 ppm. The “active-substance concentration, 14 d, 40° C.” value ([3]; in Polymer P5 (HP56)) was 142 ppm, the “active-substance concentration, 28 d, 40° C.” value ([3]; in Polymer P5 (HP56)) was 89 ppm and the “active-substance concentration, 60 d 40° C.” value ([3]; in Polymer P5 (HP56)) was 72 ppm. For the same compound, the “active-substance concentration, 0 d, RT” value ([3]; in Polymer P6) was 250 ppm, the “active-substance concentration, 14 d, 40° C.” value ([3]; in Polymer P6) was 135 ppm and the “active-substance concentration, 28 d, 40° C.” value ([3]; in Polymer P6) was 88 ppm. The “active-substance concentration, 60 d 40° C.” value ([3]; in Polymer P6) was 68 ppm, the “active-substance concentration, 0 d, RT” value ([3]; in Polymer P7) was 250 ppm and the “active-substance concentration, 14 d, 40° C.” value ([3]; in Polymer P7) was 139 ppm. For the same compound, the “active-substance concentration, 28 d, 40° C.” value ([3]; in Polymer P7) was 92 ppm, the “active-substance concentration, 60 d 40° C.” value ([3]; in Polymer P7) was 73 ppm and the “active-substance concentration, 0 d, RT” value ([3]; in Polymer P8) was 250 ppm. For the same compound, the “active-substance concentration, 14 d, 40° C.” value ([3]; in Polymer P8) was 142 ppm, the “active-substance concentration, 28 d, 40° C.” value ([3]; in Polymer P8) was 89 ppm and the “active-substance concentration, 60 d 40° C.” value ([3]; in Polymer P8) was 72 ppm. The “active-substance concentration, 0 d, RT” value ([3]; in Polymer P9) was 250 ppm, the “active-substance concentration, 14 d, 40° C.” value ([3]; in Polymer P9) was 128 ppm and the “active-substance concentration, 28 d, 40° C.” value ([3]; in Polymer P9) was 76 ppm. The “active-substance concentration, 60 d 40° C.” value ([3]; in Polymer P9) was 62 ppm, the “Start sample measurement, yeast assess., 4th inoculation” value ([4]; Polymer P1) was “− (slight growth, max. 100 colonies)” and the “60 d 40° C., yeast assess., 4th inoculation” value ([4]; Polymer P1) was “+”. The “Start sample measurement, yeast assess., 4th inoculation” value ([4]; Polymer P2) was “− (slight growth, max. 100 colonies)”, the “60 d 40° C., yeast assess., 4th inoculation” value ([4]; Polymer P2) was “++” and the “Start sample measurement, yeast assess., 4th inoculation” value ([4]; Polymer P3) was 0 (moderate growth, max. 400 colonies). For the same compound, the “60 d 40° C., yeast assess., 4th inoculation” value ([4]; Polymer P3) was “++”, the “Start sample measurement, yeast assess., 4th inoculation” value ([4]; Polymer P4) was 0 (moderate growth, max. 400 colonies) and the “60 d 40° C., yeast assess., 4th inoculation” value ([4]; Polymer P4) was “++”. The “Start sample measurement, yeast assess., 4th inoculation” value ([4]; Polymer P5 (HP56)) was 0 (moderate growth, max. 400 colonies), the “60 d 40° C., yeast assess., 4th inoculation” value ([4]; Polymer P5 (HP56)) was “++” and the “Start sample measurement, yeast assess., 4th inoculation” value ([4]; Polymer P6) was 0 (moderate growth, max. 400 colonies). For the same compound, the “60 d 40° C., yeast assess., 4th inoculation” value ([4]; Polymer P6) was “++”, the “Start sample measurement, yeast assess., 4th inoculation” value ([4]; Polymer P7) was 0 (moderate growth, max. 400 colonies) and the “60 d 40° C., yeast assess., 4th inoculation” value ([4]; Polymer P7) was “++”. The “Start sample measurement, yeast assess., 4th inoculation” value ([4]; Polymer P8) was “− (slight growth, max. 100 colonies)”, the “60 d 40° C., yeast assess., 4th inoculation” value ([4]; Polymer P8) was “+” and the “Start sample measurement, yeast assess., 4th inoculation” value ([4]; Polymer P9) was “− (slight growth, max. 100 colonies)”. For the same compound, the “60 d 40° C., yeast assess., 4th inoculation” value ([4]; Polymer P9) was “++”.
